# Patent publication US12195427B2, “MASP-2 inhibitors and methods of use” (priority 2018, dated 2025)
# Molecular target: MASP-2 CCP2-SP (Homo sapiens (Human), UniProt O00187)
# Test: MASP-2 co-crystallization, X-ray crystallography and structure analysis (H-bonds, van der Waals contacts);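 for Ligand-pharmacophore element distance, pharmacophore element C2: distance from averaged pharmacophore element to bound ligand; missing value means element absent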;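 for Ligand-pharmacophore element distance, pharmacophore element C3: distance from averaged pharmacophore element to bound ligand; missing value means element absent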;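 for Ligand-pharmacophore element distance, pharmacophore element C4: distance from averaged pharmacophore element to bound ligand; missing value means element absent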;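 for Ligand-pharmacophore element distance, pharmacophore element C5: distance from averaged pharmacophore element to bound ligand; missing value means element absent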
# Design: van der Waals contact distance, MASP-2 HIS 483 atom CD2 / van der Waals contact distance, MASP-2 HIS 483 atom NE2 / van der Waals contact distance, SER 654 C to compound atom / van der Waals contact distance, SER 654 O to compound atom / van der Waals contact distance, TRP 655 C to compound atom / van der Waals contact distance, MASP-2 GLY 528 atom CA / van der Waals contact distance TRP 655 atom CZ3 / van der Waals contact distance TRP 655 atom N / van der Waals contact distance TRP 655 atom CE3 / van der Waals contact distance GLY 656 atom C / van der Waals contact distance GLY 656 atom CA / van der Waals contact distance GLY 656 atom O / van der Waals contact distance, MASP-2 TYR 607 atom CD1 / van der Waals contact distance, MASP-2 PRO 606 atom O / d(C3,CA1) / d(CA1,N1)2 / d(H4,O1) / d(H4,O2) / d(O1,O2) / d(CA1,O2) / d(CA6,O1) / d(CA6,O2) / d(CA1,C5) / d(O2,H3) / d(N2,C2) / d(CA5,N2) / d(N2,C4) / d(N2,C6) / d(N2,CA3) / d(N2,O3) / d(O4,H2): unit not given beside the values
# Details: for Ligand-pharmacophore element distance, pharmacophore element C2 / Ligand-pharmacophore element distance, pharmacophore element C3 / Ligand-pharmacophore element distance, pharmacophore element C4 / Ligand-pharmacophore element distance, pharmacophore element C5 / Ligand-pharmacophore element distance, pharmacophore element C6 / Ligand-pharmacophore element distance, pharmacophore element C7 / Ligand-pharmacophore element distance, pharmacophore element CA1 / Ligand-pharmacophore element distance, pharmacophore element CA2 / Ligand-pharmacophore element distance, pharmacophore element CA3 / Ligand-pharmacophore element distance, pharmacophore element CA4 / Ligand-pharmacophore element distance, pharmacophore element CA5 / Ligand-pharmacophore element distance, pharmacophore element CA6: Table A4-1
# Description: This example illustrates the preparation of recombinant MASP-2 protein, based on UniProt O00187, human mannan-binding lectin serine protease 2. Expression constructs for human MASP-2 CCP2-SP and CCP2-SP-6HIS were generated for recombinant expression in E. coli cells.
# Typically, crystallization hits were obtained by screening against […] 96-well crystallization reagent kits (GRAS6, GRAS2, Hampton Research; MORPHEUS, Molecular Dimensions; Wizard 1&2 Cryo, Rigaku Reagents) and crystal growth was inspected by optical microscopy. Crystals were used directly or further optimized for X-ray diffraction. Crystals were captured with cryogenic loops and dipped into liquid nitrogen directly or cryoprotected with a 20% glycerol in crystallization formulation before flash-cooling in liquid nitrogen.
# Thereafter crystals are transferred once or twice for soaking within the crystallization solution containing the MASP-2 inhibitor.
# Crystals were diffracted with synchrotron X-rays of […] and X-ray diffraction datasets were collected at beamlines SSRL BL9-2, BL14-1, BL12-2 as well as ALS sector 5 using Dectris Pilatus and Eiger detectors. Structures were determined by molecular replacement using portions of the structure 1Q3X as search models and partially refined with Buster 2.10.2 or Refmac 5.8. […] When multiple ligand poses were observed, for instance arising from multiple molecules in the asymmetric unit or refined dual poses within the same molecule, only one pose was selected and analyzed.
# LigPlot+ calls these ‘nonbonded contacts’ or ‘hydrophobic contacts’. Despite the name, there are atom pairings that include possible H-bonds. Thus, in some instances, the Table A2 also contains H-bond interactions.
# [1] = Table A5-1 pharmacophore: distance between elements, S2/S1 region
# [2] = Table A5-2 pharmacophore distance, S3/S4 region
# [3] = Table A7-1, between pharmacophore elements of the bound compound
# [4] = Table A7-2, between pharmacophore elements of the bound compound
# [5] = Table A8-6, nearest protein atom in cell to the left
# MASP-2 CCP2-SP, sequence (O00187 445-686): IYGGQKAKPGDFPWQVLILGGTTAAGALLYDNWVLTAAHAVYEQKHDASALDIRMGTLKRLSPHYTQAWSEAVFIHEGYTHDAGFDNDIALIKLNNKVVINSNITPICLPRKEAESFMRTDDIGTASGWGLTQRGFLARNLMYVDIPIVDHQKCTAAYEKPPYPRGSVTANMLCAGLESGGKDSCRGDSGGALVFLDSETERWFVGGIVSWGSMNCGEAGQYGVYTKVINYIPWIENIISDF
# MASP-2 CCP2-SP, sequence (O00187 364-432 partner): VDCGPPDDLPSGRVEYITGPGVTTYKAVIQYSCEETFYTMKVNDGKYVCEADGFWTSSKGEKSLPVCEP
smiles,measurement,setting,value
C[C@H](NC(=O)[C@H]1C[C@@H](c2ccccc2)CCN1)C(=O)NCc1cc(Cl)ccc1O.Cl [1078_2],"Ligand-pharmacophore element distance, pharmacophore element C2",,0.61
same,"Ligand-pharmacophore element distance, pharmacophore element C3",,0
same,"Ligand-pharmacophore element distance, pharmacophore element C4",,0
same,"Ligand-pharmacophore element distance, pharmacophore element C5",,0.46
same,"Ligand-pharmacophore element distance, pharmacophore element C6",,0
same,"Ligand-pharmacophore element distance, pharmacophore element C7",,0
same,"Ligand-pharmacophore element distance, pharmacophore element CA1",,1.55
same,"Ligand-pharmacophore element distance, pharmacophore element CA2",,0.61
same,"Ligand-pharmacophore element distance, pharmacophore element CA3",,0
same,"Ligand-pharmacophore element distance, pharmacophore element CA4",,0
same,"Ligand-pharmacophore element distance, pharmacophore element CA5",,0
same,"Ligand-pharmacophore element distance, pharmacophore element CA6",,0
same,"d(CA1,C5)",[1],3.12
same,"d(CA1,O1)",[1],4.69
same,"d(CA1,O2)",[1],4.62
same,"d(CA1,O4)",[1],2.75
same,"d(H4,O1)",[1],2.19
same,"d(H4,O2)",[1],2.44
same,"d(O1,O2)",[1],3.25
same,"d(O4,H2)",[1],0.97
same,"d(N2,C2)",[2],1.44
same,"d(N2,CA2)",[2],5.72
same,"d(O2,H3)",[2],2.53
same,"d(O2,N2)",[2],2.72
same,"a(C5, CA1, O1)",Table A6-1 pharmacophore angle,159.94
same,"a(CA1, O1, O2)",Table A6-1 pharmacophore angle,109.26
same,"a(CA1, O4, H2)",Table A6-1 pharmacophore angle,128.74
same,"a(O1, CA1, O4)",Table A6-1 pharmacophore angle,65.74
same,"a(O1, O2, H4)",Table A6-1 pharmacophore angle,91.16
same,"a(O1, O2, H3)",Table A6-2 pharmacophore angle,141.98
same,"a(O1, O2, N2)",Table A6-2 pharmacophore angle,146.00
same,"a(O2, N2, C2)",Table A6-2 pharmacophore angle,128.07
same,"a(O2, N2, CA2)",Table A6-2 pharmacophore angle,155.89
same,"Pharmacophore torsion angle a(C5, CA1, O1, H4)",[3],38.04
same,"Pharmacophore torsion angle a(H4, O1, O2, H3)",[3],−132.87
same,"Pharmacophore torsion angle a(H4, O1, O2, N2)",[3],−119.25
same,"Pharmacophore torsion angle a(O1, H4, O2, CA1)",[3],−57.88
same,"Pharmacophore torsion angle a(O1, O2, N2, C2)",[3],127.17
same,"Pharmacophore torsion angle a(O1, O2, N2, CA2)",[4],137.47
C[C@H](NC(=O)[C@H]1C[C@@H](c2ccccc2)CCN1)C(=O)NCc1cc(Cl)ccc1O.Cl [1078_14],"Ligand-pharmacophore element distance, pharmacophore element C2",,0.74
same,"Ligand-pharmacophore element distance, pharmacophore element C3",,0
same,"Ligand-pharmacophore element distance, pharmacophore element C4",,0
same,"Ligand-pharmacophore element distance, pharmacophore element C5",,0.47
same,"Ligand-pharmacophore element distance, pharmacophore element C6",,0
same,"Ligand-pharmacophore element distance, pharmacophore element C7",,0
same,"Ligand-pharmacophore element distance, pharmacophore element CA1",,1.61
same,"Ligand-pharmacophore element distance, pharmacophore element CA2",,0.8
same,"Ligand-pharmacophore element distance, pharmacophore element CA3",,0
same,"Ligand-pharmacophore element distance, pharmacophore element CA4",,0
same,"Ligand-pharmacophore element distance, pharmacophore element CA5",,0
same,"Ligand-pharmacophore element distance, pharmacophore element CA6",,0
same,"d(CA1,C5)",[1],3.13
same,"d(CA1,O1)",[1],4.46
same,"d(CA1,O2)",[1],4.47
same,"d(CA1,O4)",[1],2.75
same,"d(H4,O1)",[1],2.48
same,"d(H4,O2)",[1],2.59
same,"d(O1,O2)",[1],2.91
same,"d(O4,H2)",[1],0.97
same,"d(N2,C2)",[2],1.45
same,"d(N2,CA2)",[2],5.69
same,"d(O2,H3)",[2],2.58
same,"d(O2,N2)",[2],2.77
same,"a(C5, CA1, O1)",Table A6-1 pharmacophore angle,159.36
same,"a(CA1, O1, O2)",Table A6-1 pharmacophore angle,109.29
same,"a(CA1, O4, H2)",Table A6-1 pharmacophore angle,126.58
same,"a(O1, CA1, O4)",Table A6-1 pharmacophore angle,70.42
same,"a(O1, O2, H4)",Table A6-1 pharmacophore angle,109.80
same,"a(O1, O2, H3)",Table A6-2 pharmacophore angle,144.55
same,"a(O1, O2, N2)",Table A6-2 pharmacophore angle,148.03
same,"a(O2, N2, C2)",Table A6-2 pharmacophore angle,129.57
same,"a(O2, N2, CA2)",Table A6-2 pharmacophore angle,155.65
same,"Pharmacophore torsion angle a(C5, CA1, O1, H4)",[3],20.44
same,"Pharmacophore torsion angle a(H4, O1, O2, H3)",[3],−134.39
same,"Pharmacophore torsion angle a(H4, O1, O2, N2)",[3],−121.21
same,"Pharmacophore torsion angle a(O1, H4, O2, CA1)",[3],−62.09
same,"Pharmacophore torsion angle a(O1, O2, N2, C2)",[3],126.74
same,"Pharmacophore torsion angle a(O1, O2, N2, CA2)",[4],134.23
CC(NC(=O)C(CCc1ccccc1)NCc1ccc(C(=O)N2CCOCC2)cc1)C(=O)NCc1ccc(C(=N)N)cc1.Cl.Cl (stereo not drawn) [1153_A],"Ligand-pharmacophore element distance, pharmacophore element C2",,8.69
same,"Ligand-pharmacophore element distance, pharmacophore element C3",,0
same,"Ligand-pharmacophore element distance, pharmacophore element C4",,0
same,"Ligand-pharmacophore element distance, pharmacophore element C5",,0
same,"Ligand-pharmacophore element distance, pharmacophore element C6",,0
same,"Ligand-pharmacophore element distance, pharmacophore element C7",,0
same,"Ligand-pharmacophore element distance, pharmacophore element CA1",,0.43
same,"Ligand-pharmacophore element distance, pharmacophore element CA2",,0.34
same,"Ligand-pharmacophore element distance, pharmacophore element CA3",,4.19
same,"Ligand-pharmacophore element distance, pharmacophore element CA4",,0
same,"Ligand-pharmacophore element distance, pharmacophore element CA5",,0
same,"Ligand-pharmacophore element distance, pharmacophore element CA6",,0
same,"d(CA1,N1)",[1],3.54
same,"d(CA1,O1)",[1],5.79
same,"d(CA1,O2)",[1],4.38
same,"d(H4,O1)",[1],6.25
same,"d(H4,O2)",[1],4.36
same,"d(O1,O2)",[1],4.62
same,"d(N2,C2)",[2],8.34
same,"d(N2,CA2)",[2],6.18
same,"d(N2,CA3)",[2],3.78
same,"d(N2,O3)",[2],7.78
same,"d(O2,H3)",[2],2.71
same,"d(O2,N2)",[2],2.88
same,"a(CA1, O1, O2)",Table A6-1 pharmacophore angle,99.83
same,"a(O1, O2, H4)",Table A6-1 pharmacophore angle,132.39
same,"A(N1, CA1, O1) a)","Table A6-1 pharmacophore angle, all compounds with protonatable center N1 except Methyl-amino-pyridine",174.13
same,"a(O1, O2, H3)",Table A6-2 pharmacophore angle,138.79
same,"a(O1, O2, N2)",Table A6-2 pharmacophore angle,132.96
same,"a(O2, N2, C2)",Table A6-2 pharmacophore angle,168.69
same,"a(O2, N2, CA2)",Table A6-2 pharmacophore angle,152.46
same,"a(O2, N2, CA3)",Table A6-2 pharmacophore angle,157.4
same,"a(O2, N2, O3)",Table A6-2 pharmacophore angle,167.7
same,"Pharmacophore torsion angle a(H4, O1, O2, H3)",[3],86.11
same,"Pharmacophore torsion angle a(H4, O1, O2, N2)",[3],97.90
same,"Pharmacophore torsion angle a(N1, CA1, O2, H4)",[3],−11.60
same,"Pharmacophore torsion angle a(O1, H4, O2, CA1)",[3],15.20
same,"Pharmacophore torsion angle a(O1, O2, N2, C2)",[3],30.40
same,"Pharmacophore torsion angle a(O1, O2, N2, CA2)",[4],116.41
same,"Pharmacophore torsion angle a(O1, O2, N2, CA3)",[4],24.87
same,"Pharmacophore torsion angle a(O1, O2, N2, O3)",[4],43.95
same,Pharmacophore protein distance to MET_658 (first MET_658 column),"Table A8-6, 6th residue column, nearest protein atom in cell to the left",2.53
same,Pharmacophore protein distance to MET_658 (second MET_658 column),"Table A8-6, 9th residue column, nearest protein atom in cell to the left",3.26
same,Pharmacophore protein distance to GLY_528,[5],3.41
same,Pharmacophore protein distance to PHE_529,[5],3.23
same,Pharmacophore protein distance to PRO_608,[5],4.41
same,Pharmacophore protein distance to SER_611,[5],2.46
same,Pharmacophore protein distance to TRP_655,"Table A8-6, pharmacophore elements C6, CA3, O3, H1, nearest protein atom in cell to the left",3.42
